# pIC50: −log10 of the molar value. Positions of bridges follow the written chain, without caps; N, C: chain ends. Residues, ends and D or L forms follow the SMILES beside them.
# Legend:
# human CCL2-647 = target: T1, human CCL2-647 (Homo sapiens, UniProt P13500); assay: Fluorescent chemokine binding to THP-1 cells (flow cytometry); type: cell-based; conditions: CCL2-647 1.2 nM, read-out: IC50 against CCL2-647 induced THP-1 cellular fluorescence
# T1 construct: purchased Almac (UK)
# Method: Data are shown as mean of two technical replicates. […] Curves were fitted with 4 parameters to estimate IC50.
# Fluorescent chemokine (conjugated to AlexaFluor-647) binding to THP-1 cells results in an increase in the cellular fluorescence intensity, which is quantitatively measured using flow cytometry.
# Fluorescent Chemokine/Receptor Blocking Assay CCL8-647 (2.5 nM, final) or […] (1.2 nM, final) was incubated for 30 minutes with varying doses of peptide (0-100 μM, final concentration) in 50 μL assay buffer (RPMI-1640+L-glutamine (4 mM)+10% heat treated fetal bovine serum+0.2% DMSO) at 37° C. This mixture was then added to 50,000 THP-1 cells in a 96-well v-bottomed plated to give a final volume of 100 μL, and everything incubated together for a further 30 minutes at 37° C. Following this time, the plate was centrifuged, the supernatant flicked off, and the cells resuspended in 150 μL ice cold PBSA. This was repeated twice more and the cells were finally resuspended in 150 μL ice cold PBSA. The median fluorescence intensity of 10,000 cells on the RL-1 channel was determined using an ATTUNE flow cytometer and plotted as function of peptide concentration and the data fitted to an inhibitor response curve with 4 parameters using Graph Pad prism 6. Experiments were performed as two technical and three biological replicates.
# CCL8_HUMAN = target: T2, CCL8_HUMAN (Homo sapiens, UniProt P80075); assay: Neutralisation of chemokine induced THP-1 cell migration; type: cell-based; conditions: single concentration of peptide; EC80 CCL8 5.8 nM
# T2 sequence (P80075 24-99): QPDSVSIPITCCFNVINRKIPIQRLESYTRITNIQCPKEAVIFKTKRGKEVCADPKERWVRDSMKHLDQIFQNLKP
# Method: (§1) Table 1. Tick CKBPs described in PCT/GB2017/050563 and [17]. Tick peptide sequences isolated in yeast surface display fluorescent-activated cell sorting (FACS) screens using a labelled chemokine. Identity with Evasin-1, 4 or 3 was calculated using BLAST. Abbreviations: IXORI—Ixodes ricinus, RHISA—Rhipicephalus sanguineus, AMBMA—Amblyomma maculatum, AMBPA—Amblyomma parvum, AMBTR—Amblyomma triste, AMBAM—Amblyomma americanum, AMBCA—Amblyomma cajennense, RHIPU—Rhipicephalus pulchellus. Table 2A-C. Binding characteristics of tick CKBPs previously disclosed (PCT/GB2017/050563 and [17]). All members of the human chemokine family[164] are listed in column 1. Binding to human chemokines was determined for 14 tick CKBPs using biolayer interferometry (BLI) with calculated Kd shown as Molar (Moles/Litre). Binding data for 17 other novel tick CKBPs was assayed using yeast surface display[17,166],with positive binding results shown as “YES”. For biolayer interferometry, His-tagged purified tick CKBP was bound to a Ni-NINTA sensor on an OctetRed® 384 system, and then binding to each chemokine listed (with the exception of CCL25, CCL26, CXCL16, CXCL17, CXCL4L1, XCL2) was assayed in a cross-binding screen at a chemokine concentration of 300 nM as described. For those chemokines showing binding to a tick CKBP in the cross-binding screen, binding assays were repeated using different doses of chemokine. Association, equilibrium and dissociation data were analysed using Octet software to create corresponding fitted curves, and used to calculate Kd. For yeast surface display, (YSD) background fluorescence was controlled for by using either an empty vector or by omitting the chemokine (i.e. using streptavidin-Alexa647 alone). An arbitrary threshold of >3 fold over background mean fluorescence intensity was chosen to describe confirmed re-tests. Where binding was detected data are indicated as “YES”. […] For yeast surface display data, empty cells represent chemokines that were not tested. Binding data published in relation to previously described tick CKBPs (Evasins-1, 4 and 3) is also shown for comparison in each of FIGS. 2A-C, with the relevant data obtained from publications: [20-22,32]. Table 3: Neutralisation of human chemokines by tick CKBPs previously disclosed (PCT/GB2017/050563 and [17]). Neutralising activity was determined using a quantitative THP1 cell migration assay in a 96-well Boyden chamber with chemokine in the bottom chamber as described. Cells migrating through to the bottom chamber at 4 hours were counted using flow cytometry in a 96 well plate format. IC50 for neutralisation was determined at the chemokine EC80 dose as determined using a range of tick CKBP concentrations. Data was analysed using GraphPad Prism to determine IC50, which is shown as Molar (Moles/Litre). Empty cells represent experiments not done. Table 4—Other previously described tick CKBPs. Tick CKBPs that were also described in PCT/GB2017/050563 and Singh et al. are indicated in “Notes”. Table 5.—Novel tick CKBPs of the invention. Table 6. […] The peptide sequence prefix indicates the identity, and suffix indicate the tick species as follows: AMBCA, Amblyomma cajennense and IXORI, Ixodes ricinus. […] Individual yeast clones recovered from the library were re-tested using a FACS (fluorescence activated cell sorting), experiment. The binding of the peptide to the chemokine was assayed by measuring the percent (%), of yeast cells expressing the given peptide that exceeded a background threshold set by measuring the fluorescence of the yeast library pool treated with streptavidin-[…] alone. When more than one independent yeast clone was isolated for a given peptide-chemokine combination, the mean percent shift was calculated and reported in column 3.
# CCL3_HUMAN = target: T3, CCL3_HUMAN (Homo sapiens, UniProt P10147); assay: as above; type: cell-based; conditions: single concentration of peptide; EC80 CCL3 3.5 nM
# T3 sequence (P10147 24-92): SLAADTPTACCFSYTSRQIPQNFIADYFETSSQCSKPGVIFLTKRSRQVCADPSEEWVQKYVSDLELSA
# Method: as §1
# CCL7_HUMAN = CCL7_HUMAN (Homo sapiens, UniProt P80098); assay: as above; type: cell-based; conditions: single concentration of peptide; EC80 CCL7 7.2 nM
# Sequence of CCL7_HUMAN (P80098 24-99): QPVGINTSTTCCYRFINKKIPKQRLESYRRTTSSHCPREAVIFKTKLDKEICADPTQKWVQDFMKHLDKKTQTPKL
# Method: as §1
# CCL2_HUMAN = CCL2_HUMAN (Homo sapiens, UniProt P13500); assay: as above; type: cell-based; conditions: single concentration of peptide; EC80 CCL2 1.2 nM
# Sequence of CCL2_HUMAN (P13500 24-99): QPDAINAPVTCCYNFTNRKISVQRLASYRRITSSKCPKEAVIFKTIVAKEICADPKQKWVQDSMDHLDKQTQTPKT
# Method: as §1
# CXCL9_HUMAN = target: T4, CXCL9_HUMAN (Homo sapiens, UniProt Q07325); assay: Yeast surface display (YSD) FACS binding; conditions: FACS re-test; mean percent shift where several clones
# T4 sequence (Q07325 23-125): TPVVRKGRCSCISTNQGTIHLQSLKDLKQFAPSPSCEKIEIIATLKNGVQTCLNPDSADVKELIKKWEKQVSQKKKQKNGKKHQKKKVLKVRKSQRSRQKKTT
# Method: Table 1. Tick CKBPs described in PCT/GB2017/050563 and [17]. Tick peptide sequences isolated in yeast surface display fluorescent-activated cell sorting (FACS) screens using a labelled chemokine. Identity with Evasin-1, 4 or 3 was calculated using BLAST. Abbreviations: IXORI—Ixodes ricinus, RHISA—Rhipicephalus sanguineus, AMBMA—Amblyomma maculatum, AMBPA—Amblyomma parvum, AMBTR—Amblyomma triste, AMBAM—Amblyomma americanum, AMBCA—Amblyomma cajennense, RHIPU—Rhipicephalus pulchellus. Table 2A-C. Binding characteristics of tick CKBPs previously disclosed (PCT/GB2017/050563 and [17]). All members of the human chemokine family[164] are listed in column 1. Binding to human chemokines was determined for 14 tick CKBPs using biolayer interferometry (BLI) with calculated Kd shown as Molar (Moles/Litre). […] Association, equilibrium and dissociation data were analysed using Octet software to create corresponding fitted curves, and used to calculate Kd. For yeast surface display, (YSD) background fluorescence was controlled for by using either an empty vector or by omitting the chemokine (i.e. using streptavidin-Alexa647 alone). An arbitrary threshold of >3 fold over background mean fluorescence intensity was chosen to describe confirmed re-tests. Where binding was detected data are indicated as “YES”. […] Data was analysed using GraphPad Prism to determine IC50, which is shown as Molar (Moles/Litre). […]
# T1 sequence (P13500 24-99): as the sequence (P13500 24-99) above
Compound,pIC50 (human CCL2-647),Effect on CCL8-induced THP-1 cell migration (CCL8_HUMAN),Effect on CCL3-induced THP-1 cell migration (CCL3_HUMAN),Effect on CCL7-induced THP-1 cell migration (CCL7_HUMAN),Effect on CCL2-induced THP-1 cell migration (CCL2_HUMAN),Chemokines bound in yeast surface display and % cells over threshold fluorescence: CXCL9_HUMAN (CXCL9_HUMAN)
CC(C)[C@@H]1NC(=O)[C@@H]2CCCN2C(=O)[C@H](CCCCN)NC(=O)[C@H](Cc2ccccc2)NC(=O)[C@H](Cc2ccccc2)NC(=O)[C@H](CC(=O)O)NC(=O)[C@H](CCC(=O)O)NC(=O)[C@H](Cc2ccc(O)cc2)NC(=O)[C@H](CC(=O)O)NC(=O)[C@H](CCC(=O)O)NC(=O)[C@H](CC(=O)O)NC(=O)[C@H](CCC(=O)O)NC(=O)[C@H](Cc2ccc(O)cc2)NC(=O)CSC[C@@H](C(=O)N[C@@H](Cc2ccc(O)cc2)C(=O)N[C@@H](Cc2ccccc2)C(N)=O)NC(=O)[C@H]([C@@H](C)O)NC1=O [BK1.2] ({CH2CO}-YEDEDYEDFFKPVTCYF-NH2; thioether N-15),5.20,reduced CCL8 induced cell migration to baseline levels,significantly reduced,stronger effect,stronger effect,
"P1124_IXORI: novel CXC-binding tick CKBP, Ixodes ricinus (DSKGTSDSQDSTKSIKVDFCETNCTKTDGGWTGCTGDCICVSVGDSIEGRCMDFG; listed as Ixodes ricinus)",,,,,,CXCL9_HUMAN 31%
